Experimental data from the supplement of paper PMC10307832.

How the values were obtained:
Test in all cases: relative viability (nuclei count vs DMSO), 5 days (fraction); higher = more cells survive
[1] = compound: C1CNCCC1C2=CC(=NN2)C3=CC=NC=C3 + O=C(CCCCCCC(=O)Nc1ccccc1)NO [Vorinostat] (partner 1 µM)
In short: (§1)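 Medians of duplicate plates are given as relative viability. That measure is the nuclei count in treated wells divided by the count in vehicle wells. Counts were taken on 4× images of lung cancer cell lines in 1536-well plates, 5 days after pin-tool dosing the day after seeding with one drug alone or a fixed anchor-drug dose plus five library-drug doses (not always all listed) in √10 steps.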

[2] = compound: C[C@@H](N)c1ccc(C(=O)Nc2ccnc3[nH]ccc23)cc1 + COc1cccc2cc(-c3nc([C@H]4CC[C@H](C(=O)O)CC4)n4ncnc(N)c34)[nH]c12 [OSI-027] (partner 0.5 µM)
In short: as §1

Tanzisertib + Alpelisib = compound: O[C@H]1CC[C@H](Nc2ncc3nc(Nc4c(F)cc(F)cc4F)n([C@H]4CCOC4)c3n2)CC1 [Tanzisertib] + Cc1nc(NC(=O)N2CCC[C@H]2C(N)=O)sc1-c1ccnc(C(C)(C)C(F)(F)F)c1 [Alpelisib] (partner 2 µM)
In short: as §1

[3] = compound: C1CNCCC1C2=CC(=NN2)C3=CC=NC=C3 + COc1cccc2cc(-c3nc([C@H]4CC[C@H](C(=O)O)CC4)n4ncnc(N)c34)[nH]c12 [OSI-027] (partner 0.5 µM)
In short: as §1

Cell Line | relative viability ([1]; first compound 0.08 µM) | relative viability ([1]; first compound 0.8 µM) | relative viability ([1]; first compound 2.53 µM) | relative viability ([1]; first compound 8 µM) | relative viability ([2]; first compound 0.04 µM) | relative viability ([2]; first compound 0.1265 µM) | relative viability ([2]; first compound 0.4 µM) | relative viability ([2]; first compound 1.265 µM) | relative viability ([2]; first compound 4 µM) | relative viability (Tanzisertib + Alpelisib; first compound 0.08 µM) | relative viability (Tanzisertib + Alpelisib; first compound 0.253 µM) | relative viability (Tanzisertib + Alpelisib; first compound 0.8 µM) | relative viability (Tanzisertib + Alpelisib; first compound 2.53 µM) | relative viability (Tanzisertib + Alpelisib; first compound 8 µM) | relative viability ([3]; first compound 0.08 µM) | relative viability ([3]; first compound 0.8 µM) | relative viability ([3]; first compound 2.53 µM) | relative viability ([3]; first compound 8 µM)
NCI-H2170 | 0.658 | 0.825 | 0.771 | 0.762 | 0.775 | 0.739 | 0.747 | 0.515 | 0.718 | 0.98 | 0.787 | 0.796 | 0.779 | 0.809 | 0.611 | 0.697 | 0.776 | 0.686
HCC-366 | 0.444 | 0.36 | 0.426 | 0.372 | 0.787 | 0.847 | 0.993 | – | 1.08 | 0.438 | 0.346 | 0.295 | 0.377 | 0.287 | 1.12 | 1.01 | 1.05 | 0.878
NCI-H2347 | 0.541 | 0.486 | 0.573 | 0.627 | 0.502 | 0.494 | 0.414 | – | 0.631 | 1.17 | 1.04 | 1.1 | 1.16 | 1.11 | 0.494 | 0.291 | 0.442 | 0.487
COR-L 105 | 0.805 | 0.916 | 1.07 | 0.964 | 0.719 | 0.943 | 0.852 | 0.517 | 0.563 | 1.19 | 0.832 | 1.07 | 1.09 | 0.924 | 0.694 | 0.678 | 0.925 | 0.664
201T | 0.954 | 0.955 | 1.02 | 0.949 | 0.844 | 0.835 | 0.961 | 1.01 | 0.856 | 1.03 | 1.04 | 1.01 | 0.993 | 1.01 | 0.72 | 0.718 | 0.832 | 0.842
NCI-H2126 | 0.79 | 0.712 | 0.778 | 0.797 | 0.9 | 0.654 | 0.797 | – | 0.944 | 0.775 | 0.749 | 0.749 | 0.725 | 0.736 | 0.724 | 0.591 | 0.725 | 0.698
LC-2-ad | 0.723 | 0.757 | 0.741 | 0.658 | 0.763 | 0.893 | 0.858 | – | 0.625 | 0.902 | 0.888 | 0.939 | 0.876 | 0.815 | – | 0.868 | 0.936 | 0.908
NCI-H2085 | 0.858 | – | 0.809 | 0.845 | 0.744 | 0.816 | 0.77 | 0.397 | 0.717 | 0.997 | 0.96 | 0.966 | 0.948 | 1.01 | 0.818 | 0.515 | 0.682 | 0.935
NCI-H358 | 0.492 | 0.654 | 0.907 | 0.617 | 0.816 | 1.07 | 0.855 | 0.794 | 0.701 | 0.902 | 0.762 | 0.922 | 0.717 | 0.635 | 0.593 | 0.713 | 0.834 | 0.698
